Results reported in article PMC6147235 (iScience, 2018).

System: WT OPS, G51A, T17M, P171Q, P180A
Test: Subcellular localization
Format: cell-based, human
Settings: 10 µM all-trans retinal, P180A in COS-7 cells

CC1=C(/C=C/C(C)=C/C=C/C(C)=C/C=O)C(C)(C)CCC1 [all-trans retinal]
effect on subcellular localization (PCC and RetP1/1D4): no effect
